From US9737523B2, “Anti-fibrogenic compounds, methods and uses thereof” (priority 2013, dated 2017)

Assays:
splenocytes = experiment: ConA-induced splenocyte proliferation; assay type: cell-based; details: for reduction in conA-induced splenocyte proliferation: 100 and 150 μg/ml
MMP-1 = MMP-1 expression in human dermal fibroblasts, Western blot; assay type: cell-based
Procedure: Cells were then harvested after 48 hours and western blot analysis was performed.
Cells were harvested by Trypsin/EDTA and lysed with cell lysis buffer containing 50 mM Tris-HCl (pH7.40), 150 mM NaCl, 10 mM EDTA, 5 mM EGTA, 1% TritonX-100™, 0.5% Igepal CA-630, 0.025% NaN3 and protease inhibitor cocktail (Sigma™). Cell debris was removed by centrifugation at 20,000×g for 10 minutes. The protein concentration in supernatant was determined using the MicroBCA™ method (Pierce™, Rockford, Ill.). Proteins in supernatant were mixed with protein sample loading buffer (final concentration: 60 mM Tris-HCl (pH 6.80), 2% SDS, 10% glycerol, 1.5% β-mercaptoethanol, 0.002% bromophenol blue) and size fractioned by 10% of SDS-polyacrylamide gel. After proteins were transferred onto nitrocellulose membrane by iBlot™ (Invitrogen Life Technologies™), non-specific binding were blocked with phosphate buffer saline twenty 20 (PBS-T) containing 5% skim milk for 1 hour. The membrane was then incubated with primary antibody overnight. After incubation with a secondary antibody for 1 hour, protein bands were visualized by an enhanced chemiluminescence (ECL™) detection system (Santa Cruz Biotechnology™, Santa Cruz, Calif.). The primary antibodies used in this study were: mouse monoclonal anti-human MMP-1 (R&D Systems™, Minneapolis, Minn.), mouse monoclonal anti-human MMP-3 (R&D System™), rabbit monoclonal anti-human MMP-2 (Epitomics™, Burlingame, Calif.), rabbit polyclonal anti-phospho-MEK1/2 (Ser217/221™) (Cell Signaling Technology™, Danvers, Mass.), rabbit polyclonal anti-phospho-p44/42 MAPK (Thr202/Tyr204) (Cell Signaling Technology™), monoclonal anti-β-actin (Sigma™), and mouse anti-type-1 procollagen (Developmental Studies Hybridoma Bank™, Iowa City, Iowa). The secondary antibodies were either goat anti-mouse IgG (H+L) HPR conjugate or goat anti-rabbit IgG (H+L) HPR conjugate (Bio-rad Laboratory™ (Mississauga, ON, Canada). Secondary antibodies were used at a concentration of 1:3000.

fibronectin = experiment: Fibronectin mRNA in human dermal fibroblasts, real-time PCR; assay type: cell-based; details: various concentration
[1] = test system: MEK-ERK1/2 signaling pathway; experiment: Kynurenine-stimulated MMP-1 expression in dermal fibroblasts with MEK/ERK1/2 phosphorylation inhibitors; assay type: cell-based, human; details: 100 μg/ml kynurenine
Procedure: Cells were harvested by Trypsin/EDTA and lysed with cell lysis buffer containing 50 mM Tris-HCl (pH7.40), 150 mM NaCl, 10 mM EDTA, 5 mM EGTA, 1% TritonX-100™, 0.5% Igepal CA-630, 0.025% NaN3 and protease inhibitor cocktail (Sigma™). Cell debris was removed by centrifugation at 20,000×g for 10 minutes. The protein concentration in supernatant was determined using the MicroBCA™ method (Pierce™, Rockford, Ill.). Proteins in supernatant were mixed with protein sample loading buffer (final concentration: 60 mM Tris-HCl (pH 6.80), 2% SDS, 10% glycerol, 1.5% β-mercaptoethanol, 0.002% bromophenol blue) and size fractioned by 10% of SDS-polyacrylamide gel. After proteins were transferred onto nitrocellulose membrane by iBlot™ (Invitrogen Life Technologies™), non-specific binding were blocked with phosphate buffer saline twenty 20 (PBS-T) containing 5% skim milk for 1 hour. The membrane was then incubated with primary antibody overnight. After incubation with a secondary antibody for 1 hour, protein bands were visualized by an enhanced chemiluminescence (ECL™) detection system (Santa Cruz Biotechnology™, Santa Cruz, Calif.). […]

type 1 procollagen = experiment: Type 1 procollagen expression in dermal fibroblasts, Western blot; assay type: cell-based, human; details: kynurenine analogues/metabolites, FIG. 10 bottom
Procedure: (§1) Cell debris was removed by centrifugation at 20,000×g for 10 minutes. The protein concentration in supernatant was determined using the MicroBCA™ method (Pierce™, Rockford, Ill.). Proteins in supernatant were mixed with protein sample loading buffer (final concentration: 60 mM Tris-HCl (pH 6.80), 2% SDS, 10% glycerol, 1.5% β-mercaptoethanol, 0.002% bromophenol blue) and size fractioned by 10% of SDS-polyacrylamide gel. After proteins were transferred onto nitrocellulose membrane by iBlot™ (Invitrogen Life Technologies™), non-specific binding were blocked with phosphate buffer saline twenty 20 (PBS-T) containing 5% skim milk for 1 hour. The membrane was then incubated with primary antibody overnight. After incubation with a secondary antibody for 1 hour, protein bands were visualized by an enhanced chemiluminescence (ECL™) detection system (Santa Cruz Biotechnology™, Santa Cruz, Calif.). […] The secondary antibodies were either goat anti-mouse IgG (H+L) HPR conjugate or goat anti-rabbit IgG (H+L) HPR conjugate (Bio-rad Laboratory™ (Mississauga, ON, Canada). Secondary antibodies were used at a concentration of 1:3000.

MMP-3 = MMP-3 expression in human dermal fibroblasts, Western blot; assay type: cell-based
Procedure: Cells were then harvested by trypsinization and western blot analysis was performed.
as §1

[2] = kynurenine isoforms, 50 μg/ml, 48 hours

In the case of `Nc1ccccc1C(=O)C[C@@H](N)C(=O)O` [D-kynurenine], the “reduction in conA-induced splenocyte proliferation” value (“reduction” below) (splenocytes; after 48 hours) is reported as “about 2 fold”, the “reduction” value (splenocytes; after 96 hours) is reported as about 5 fold and the MMP-1 expression (MMP-1; [2]) is reported as “increase”.

With `Nc1ccccc1C(=O)C[C@H](N)C(=O)O` [L-kynurenine] the “reduction” value (splenocytes; after 48 hours) was “about 2 fold”, the “reduction” value (splenocytes; after 96 hours) was about 5 fold and the “fibronectin expression (mRNA)” value (fibronectin) was “capable of down-regulating”. The “activity on MMP-1 expression compared with the other isoforms” value (MMP-1; 50 μg/ml, 48 hours) was “more activity compared to other two isoforms” and the MMP-1 expression (MMP-1; [2]) was “increase”.

With `COc1cccc(-c2cc(=O)c3ccccc3o2)c1N` [PD98059] the “effect on kynurenine-stimulated MMP-1 expression” value ([1]; various concentration of PD98059, dose-dependent) was “effectively prevented”.

In the case of `N#CC(=C(/N)Sc1ccccc1N)/C(C#N)=C(\N)Sc1ccccc1N` [U0126], the “effect on up-regulation of MMP-1 expression by kynurenine” value ([1]; to M and 30 μM of U0126) is reported as “significantly reduced”.

`O=C(O)c1cc(=O)c2ccccc2[nH]1` [kynurenic acid] was tested, and the “effect on splenocyte proliferation compared with other metabolites” value (splenocytes) was “less effect”, the “reduction” value (splenocytes; after 96 hours) was about 5 fold and the “expression of type 1 procollagen” value (type 1 procollagen) was “effective at inhibiting”. For the same molecule, the “MMP-3 induction (general statement)” value (MMP-3) was “induce”, the “MMP-1 induction (general statement)” value (MMP-1) was “induce” and the “MMP1 protein expression 48 hours after treatment removal” value (MMP-1; 100 μg/ml for 48 hours, then 48 hours after removal) was “remained higher than controls”. For the same molecule, the “MMP1 expression versus untreated cells after treatment removal” value (MMP-1; 100 μg/ml for 48 hours, then another 24 hours after removal) was “remained significantly higher”, the “lasting effect on expression of MMP-1 relative to Kyn” value (MMP-1; 100 μg/ml for 48 hours, then removal) was “longer lasting effect” and the MMP1 expression (MMP-1; 100 μg/ml, at 48 hours after treatment) was “marked increase”.

For `N[C@@H](Cc1c[nH]c2ccccc12)C(=O)O` [tryptophan, reference compound], the “MMP-1 expression, presence of tryptophan versus tryptophan-depleted media” value (MMP-1; 25 μg/ml tryptophan, 48 hrs) was “no significant difference” and the MMP-1 expression (MMP-1; various concentration of tryptophan, 48 hours) was “failed to increase”.

`O=C(O)c1cc(O)c2cccc(O)c2n1` [xanthurenic acid] was tested, and the “expression of type 1 procollagen” value (type 1 procollagen) was “effective at inhibiting”, the “MMP-3 induction (general statement)” value (MMP-3) was “induce” and the “MMP-1 induction (general statement)” value (MMP-1) was “induce”.
